Patent US9757393B2 (priority 2015, dated 2017)

Legend:
HFD-fed C57BL/6J mice [1] = experiment: Blood glucose, HbA1c, blood lipids, insulin and leptin levels in HFD-fed mice; type: in vivo; conditions: for Blood Profiles FFA / Blood Profiles HDL-C / Blood Profiles HbA1c / Blood Profiles LDL-C: oral gavage daily for 4 weeks; for blood glucose levels / blood insulin levels / blood leptin levels / blood total cholesterol (TC) levels / blood triglyceride (TG) level: vs HF group
Experimental: (§1) Experimental Animals: the experiments are conducted under the guidelines of the Institutional Animal Care and Use Committee of Central Taiwan University of Science and Technology. As previously described, four-week-old male C57BL/6J mice (n=63) is purchased from the National Laboratory Animal Breeding and Research Center, Ministry of Science and Technology. After 1-week of acclimatization, mice are designed to initiate the study, and the study lasts for 12 weeks. […] The CON group and high-fat control (HF) group are given with vehicle only. The low-fat diet consisted of fat 10%, whereas the high-fat diet (HFD) consisted of fat 45% (of total energy, % kcal). The compositions of the experimental diets are shown as described. At the end of the study, food is derived from the animals (from 10 p.m. to 10 a.m.). On the next day, the mice are sacrificed, and blood and tissue are collected for analysis. Livers, skeletal muscles, and white adipose tissues (WATs) (including epididymal, mesenteric and retroperitoneal WAT) are excised and weighed, and then immediately stored in a freezer at −80° C. Heparin (30 units/mL) (Sigma) is added to blood samples. Plasma samples are collected by centrifugation at 1600 g for 15 min at 4° C. within 30 min, and plasma is obtained for insulin and leptin level analysis.
Blood Glucose and HbA1c Levels. Blood samples (0.8 mL) are collected from the retro-orbital sinuses of fasting mice, and glucose level is measured by the glucose oxidase method (model 1500; Sidekick Glucose Analyzer; YSI Inc., Yellow Springs, Ohio, USA). Percent HbA1c is detected with a Hemoglobin A1c kit (BioSystems S.A., Barcelona, Spain). Plasma triglycerides (TG), total cholesterol (TC), free fatty acids (FFA), high-density lipoprotein cholesterol (HDL-C), and low density lipoprotein cholesterol (LDL-C) are determined using commercial assay kits (Triglycerides-E test, Cholesterol-E test, and FFA-C test, Wako Pure Chemical, Osaka, Japan; HDL-C-test and LDL-C-test, Roche Diagnostics GmbH, Indianapolis, USA) according to their instructions. A mouse insulin ELISA kit (Sibayagi, Gunma, Japan) and mouse leptin ELISA kit (Morinaga, Yokohama, Japan) are used to measure blood insulin and leptin levels, respectively.

HFD-fed C57BL/6J mice [2] = experiment: Histopathology examination of epididymal WAT and liver tissue; type: in vivo; conditions: for ballooning degeneration of hepatocyte: liver tissue; for average area of adipocytes (epididymal WAT): oral gavage daily for 4 weeks
Experimental: as §1
A portion of the collected epididymal WAT and liver tissue is fixed with formalin (200 g/kg) neutral buffered solution and embedded in paraffin. Sections (8 μm) are cut and stained with hematoxylin and eosin. A microscope (Leica, DM2500) and Leica Digital camera (DFC-425-C) are used for microscopic examination and images taken, respectively.

G6 Pase mRNA = experiment: Semiquantitative RT-PCR, liver tissue: G6 Pase; type: in vivo, C57BL/6J mice; conditions: HFD-fed mice
Experimental: as §1
(§2) The experiment is performed as in a previously described protocol. Total RNA from the liver tissue is isolated with a Trizol reagent (Molecular Research Center, Inc., Cincinnati, Ohio, USA) according to the manufacturer's directions. Total RNA (1 μg) is reverse transcribed to cDNA with 5 μL of Moloney murine leukemia virus reverse transcriptase (Epicenter, Madison, Wis., USA) as a previously described protocol. […] The relative density of the band is evaluated using AlphaDigiDoc 1201 software (Alpha Innotech Co., San Leandro, Calif., USA). All of the measured PCR products are normalized to the amount of cDNA of GAPDH in each sample.

DGAT2 mRNA = experiment: Semiquantitative RT-PCR, liver tissue: DGAT2; type: in vivo, C57BL/6J mice; conditions: HFD-fed mice
Experimental: as §1, §2

membrane GLUT4 = experiment: Western blotting of membrane GLUT4 in skeletal muscle; type: in vivo, C57BL/6J mice; conditions: HFD-fed mice; for muscular membrane GLUT4 protein contents: vs HF group
Experimental: as §1
Protein extractions and immunoblots for the determination of membrane GLUT4, phospho-AMPK (Thr172), and phospho-Akt (Ser 473) proteins are carried out on frozen skeletal muscle and liver tissue from mice, which follows a previous paper. Additionally, membrane GLUT4 is carried out on frozen skeletal muscle from mice, and the total membrane fractions are collected with buffer and centrifuged as a previously described. The protein contents of membrane GLUT4, phospho-AMPK, phospho-Akt, total AMPK, and total Akt are detected by western blotting. Western blotting has been determined as described elsewhere. Subsequently, antibodies are detected using horseradish peroxidase linked to a goat anti-IgG rabbit secondary antibody and visualized using an ECL system. Membrane GLUT4, structural proteins GAPDH and β-actin are purchased from Santa Cruz Biotechnology (Santa Cruz, Calif., USA); phospho-AMPK was obtained from Abcam Inc. (Cambridge, Mass., USA); phospho-Akt, total AMPK, and total Akt are from Cell Signaling Technology, Inc. (Danver Mass., USA); the BCA protein assay kit is from Thermo Scientific (Rockford, Ill., USA); and the ECL reagent kit is from GE Healthcare BioSciences (Buckinghamshire, UK). The secondary antibody antirabbit is from Jackson ImmunoResearch Laboratories, Inc. (West Grove, Pa., USA). The density blotting is analyzed using Alpha Easy FC software (Alpha Innotech Corp., Randburg, South Africa). Structural proteins GAPDH and β-actin are obtained by stripping the nitrocellulose membrane proteins of liver and skeletal muscle, respectively.

Compound: CC(C)[C@@H](C)C=C[C@@H](C)[C@H]1CC[C@H]2C3=CCC4C[C@@H](O)CC[C@]4(C)C3=CC[C@]12C (stereo partly drawn) [ergostatrien-3β-ol, ergosta-7,9(11),22-trien-3β-ol]
- levels of TG (circulating) (HFD-fed C57BL/6J mice [1]; dose not specified): moderate reduction
- Blood Profiles FFA (HFD-fed C57BL/6J mice [1]; 10 mg/kg/day): 1.06 ± 0.10 meq/L
- Blood Profiles HDL-C (HFD-fed C57BL/6J mice [1]; 10 mg/kg/day): 82.2 ± 3.9 mg/dL
- Blood Profiles HbA1c (HFD-fed C57BL/6J mice [1]; 10 mg/kg/day): 5.8 ± 0.7 %
- Blood Profiles FFA (HFD-fed C57BL/6J mice [1]; 20 mg/kg/day): 1.05 ± 0.09 meq/L
- Blood Profiles HDL-C (HFD-fed C57BL/6J mice [1]; 20 mg/kg/day): 83.0 ± 2.0 mg/dL
- Blood Profiles HbA1c (HFD-fed C57BL/6J mice [1]; 20 mg/kg/day): 5.7 ± 0.5 %
- Blood Profiles LDL-C (HFD-fed C57BL/6J mice [1]; 20 mg/kg/day): 103.7 ± 10.8 mg/dL
- Blood Profiles FFA (HFD-fed C57BL/6J mice [1]; 40 mg/kg/day): 1.03 ± 0.05 meq/L
- Blood Profiles HDL-C (HFD-fed C57BL/6J mice [1]; 40 mg/kg/day): 83.8 ± 1.6 mg/dL
- Blood Profiles HbA1c (HFD-fed C57BL/6J mice [1]; 40 mg/kg/day): 5.1 ± 0.3 %
- Blood Profiles LDL-C (HFD-fed C57BL/6J mice [1]; 40 mg/kg/day): 86.8 ± 11.5 mg/dL
- blood glucose levels (HFD-fed C57BL/6J mice [1]; 10 mg/kg/day): significantly reduce
- blood insulin levels (HFD-fed C57BL/6J mice [1]; 10 mg/kg/day): decrease
- blood leptin levels (HFD-fed C57BL/6J mice [1]; 10 mg/kg/day): decrease
- blood total cholesterol (TC) levels (HFD-fed C57BL/6J mice [1]; 10 mg/kg/day): lower
- blood triglyceride (TG) level (HFD-fed C57BL/6J mice [1]; 10 mg/kg/day): decrease
- blood glucose levels (HFD-fed C57BL/6J mice [1]; 20 mg/kg/day): significantly reduce
- blood insulin levels (HFD-fed C57BL/6J mice [1]; 20 mg/kg/day): decrease
- blood leptin levels (HFD-fed C57BL/6J mice [1]; 20 mg/kg/day): decrease
- blood total cholesterol (TC) levels (HFD-fed C57BL/6J mice [1]; 20 mg/kg/day): lower
- blood triglyceride (TG) level (HFD-fed C57BL/6J mice [1]; 20 mg/kg/day): decrease
- blood glucose levels (HFD-fed C57BL/6J mice [1]; 40 mg/kg/day): significantly reduce
- blood insulin levels (HFD-fed C57BL/6J mice [1]; 40 mg/kg/day): decrease
- blood leptin levels (HFD-fed C57BL/6J mice [1]; 40 mg/kg/day): decrease
- blood total cholesterol (TC) levels (HFD-fed C57BL/6J mice [1]; 40 mg/kg/day): lower
- blood triglyceride (TG) level (HFD-fed C57BL/6J mice [1]; 40 mg/kg/day): decrease
- ballooning degeneration of hepatocyte (HFD-fed C57BL/6J mice [2]; 10 mg/kg/day): decreases
- ballooning degeneration of hepatocyte (HFD-fed C57BL/6J mice [2]; 20 mg/kg/day): decreases
- ballooning degeneration of hepatocyte (HFD-fed C57BL/6J mice [2]; 40 mg/kg/day): decreases
- average area of adipocytes (epididymal WAT) (HFD-fed C57BL/6J mice [2]; 10 mg/kg/day): 4204.0±131.5 μm2
- average area of adipocytes (epididymal WAT) (HFD-fed C57BL/6J mice [2]; 20 mg/kg/day): 3535.7±340.2 μm2
- average area of adipocytes (epididymal WAT) (HFD-fed C57BL/6J mice [2]; 40 mg/kg/day): 3458.9±30.7 μm2
- mRNA level of G6 Pase (G6 Pase mRNA; 10 mg/kg/day): decreased
- mRNA level of G6 Pase (G6 Pase mRNA; 20 mg/kg/day): decreased
- mRNA level of G6 Pase (G6 Pase mRNA; 40 mg/kg/day): decreased
- mRNA level of DGAT2 (DGAT2 mRNA; 10 mg/kg/day): decreased
- mRNA level of DGAT2 (DGAT2 mRNA; 20 mg/kg/day): decreased
- mRNA level of DGAT2 (DGAT2 mRNA; 40 mg/kg/day): decreased
- enhancement of muscular membrane GLUT4 protein (membrane GLUT4; 40 mg/kg/day): approximately 2.7 fold
- muscular membrane GLUT4 protein contents (membrane GLUT4; 10 mg/kg/day): increased
- muscular membrane GLUT4 protein contents (membrane GLUT4; 20 mg/kg/day): increased
- muscular membrane GLUT4 protein contents (membrane GLUT4; 40 mg/kg/day): increased
